Key:
Experiment in all cases: Microdilution MIC assay (NCCLS/CLSI guidelines)
Type in all cases: cell-based
Details in all cases: tested 0.06-32 μg/ml
[1] = test system: Staphylococcus epidermidis, ATCC 12228
Procedure: (§1) Purified Eurocin was evaluated for antimicrobial activity in a microdillution assay. The
(§2) Minimal Inhibitory Concentration (MIC) was determined following the NCCLS/CLSI guidelines from CLSI (Clinical and Laboratory Standards Institute).
(§3) Eurocin was tested at the following concentrations: 32; 16; 8; 4; 2; 1; 0.50; 0.25; 0.13; and 0.06 μg/ml.

[2] = test system: Micrococcus luteus, ATCC 9341
Procedure: as §1, §2, §3

[3] = test system: Staphylococcus aureus, ATCC 29213
Procedure: as §1, §2, §3

[4] = test system: Streptococcus pneumoniae, ATCC 49619
Procedure: as §1, §2, §3

[5] = test system: Enterococcus faecium, ATCC 49624
Procedure: as §1, §2, §3

[6] = test system: Staphylococcus carnosus, ATCC 51365
Procedure: as §1, §2, §3

[7] = test system: Streptococcus pyogenes, ATCC 12344
Procedure: as §1, §2, §3

Work on “Eurocin: antimicrobial polypeptide shown as amino acids 1 to 42 of SEQ ID NO:2, from Eurotium amstelodami, expressed in Aspergillus oryzae (MHFTKVSTILFTIFAAGIMAAPTEGVREEAAPGQEVYPDEPP; listed as Eurotium amstelodami)” yielded an MIC [1] of 16 µg/mL, an MIC [2] of 0.5 µg/mL and an MIC [3] of 16 µg/mL. For the same substance, the MIC [4] was 0.25 µg/mL, the MIC [5] was 16 µg/mL and the MIC [6] was 8 µg/mL. It also gave an MIC [7] of 0.13 µg/mL.

Reference: US8192925B2, “Polypeptides having antimicrobial activity and polynucleotides encoding same” (Novozymes Adenium Biotech A/S, priority 2004, dated 2012)
